Data reported in patent US20070248629A1, “PHARMACEUTICAL FORMULATIONS FOR IONTOPHORETIC DRUG DELIVERY” (priority 2006, published 2007).
In brackets after ≈: the same amount, converted by molar mass.

Experiments:
[1] = Soluble acyclovir in acyclovir sodium gels by centrifugation and HPLC; conditions: for soluble species contributing to soluble acyclovir: 88 mole % sodium hydroxide, based on base charge / calculated by difference
Source text: The presence or absence of a pellet was noted and an aliquot of the supernatant was removed for dilution and analysis by HPLC.
(§1) Essentially the same values are obtained from the propylene glycol/water formulations. […] The observed pH of the 88% neutralized solutions is weakly affected by the cosolvent to water ratio.

physchem [2] = conditions: pH 11
Source text: as §1

physchem [3] = experiment: physchem
[4] = pH 7; cited from earlier work
[5] = Solubility of acyclovir and sodium acyclovir in water and cosolvent mixtures; conditions: propylene glycol/water solution, aqueous with cosolvent or surfactant or cyclodextrin

SMILES	soluble species contributing to soluble acyclovir ([1]; glycerin solutions, listed as neutral acyclovir) [%]	soluble acyclovir (total) ([1]; partial neutralization (88 mole % sodium hydroxide), glycerin solutions) [%]	pKa (physchem [2])	solubility (physchem [3]; pH 7, aqueous with cosolvent or surfactant or cyclodextrin) [µg/mL]	solubility in water [4] [µg/mL]	solubility [5] [µg/mL]	soluble species contributing to soluble acyclovir ([1]; glycerin solutions) [%]	solubility in gels with complete neutralization ([1]; 105 and 116 mole % sodium hydroxide)	solubility (physchem [3]; water) [µg/mL]
Nc1nc2c(ncn2COCCO)c(=O)[nH]1 [acyclovir]	0.3	5.3	9.8	3000 (≈ 13.3 mM)	1300 (≈ 5.77 mM)	3000 (≈ 13.3 mM)			
Nc1nc2c(ncn2COCCO)c(=O)[nH]1 [sodium acyclovir]							5.0	greater than 5.7 weight percent	> 100000
